The target in this experiment is T1, T cell α4β7 integrin (Homo sapiens, UniProt P13612+P26010).
T1 construct: Blood samples were obtained from healthy volunteers' blood donation; endogenous in cells; host or cells: CD4-positive T cells in whole blood of healthy human volunteers
T1 sequence (P13612 34-1032): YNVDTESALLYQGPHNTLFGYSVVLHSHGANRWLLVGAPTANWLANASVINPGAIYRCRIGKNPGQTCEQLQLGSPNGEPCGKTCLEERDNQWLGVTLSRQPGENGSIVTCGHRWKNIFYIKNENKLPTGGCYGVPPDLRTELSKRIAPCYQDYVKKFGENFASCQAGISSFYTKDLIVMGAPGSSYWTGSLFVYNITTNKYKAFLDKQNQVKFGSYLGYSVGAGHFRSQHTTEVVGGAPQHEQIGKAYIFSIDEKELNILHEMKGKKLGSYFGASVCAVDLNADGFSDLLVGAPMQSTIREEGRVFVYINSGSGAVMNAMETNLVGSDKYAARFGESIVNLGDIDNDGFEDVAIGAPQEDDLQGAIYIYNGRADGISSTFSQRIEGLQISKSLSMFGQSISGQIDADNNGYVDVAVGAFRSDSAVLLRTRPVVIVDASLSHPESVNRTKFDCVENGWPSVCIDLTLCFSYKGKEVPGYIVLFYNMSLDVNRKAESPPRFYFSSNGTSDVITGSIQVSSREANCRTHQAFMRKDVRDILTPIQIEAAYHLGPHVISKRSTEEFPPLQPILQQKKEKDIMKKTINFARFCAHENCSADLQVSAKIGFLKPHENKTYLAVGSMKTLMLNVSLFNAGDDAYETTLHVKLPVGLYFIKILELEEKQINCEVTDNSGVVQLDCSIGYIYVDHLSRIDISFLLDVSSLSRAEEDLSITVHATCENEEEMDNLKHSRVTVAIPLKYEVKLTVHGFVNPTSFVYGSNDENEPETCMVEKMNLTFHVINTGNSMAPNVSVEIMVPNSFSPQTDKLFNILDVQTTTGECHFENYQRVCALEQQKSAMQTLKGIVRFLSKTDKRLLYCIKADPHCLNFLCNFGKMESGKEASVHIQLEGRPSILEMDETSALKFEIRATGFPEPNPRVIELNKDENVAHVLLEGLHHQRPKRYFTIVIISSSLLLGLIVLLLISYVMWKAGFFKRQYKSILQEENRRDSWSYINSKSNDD
T1 sequence (P26010 20-798): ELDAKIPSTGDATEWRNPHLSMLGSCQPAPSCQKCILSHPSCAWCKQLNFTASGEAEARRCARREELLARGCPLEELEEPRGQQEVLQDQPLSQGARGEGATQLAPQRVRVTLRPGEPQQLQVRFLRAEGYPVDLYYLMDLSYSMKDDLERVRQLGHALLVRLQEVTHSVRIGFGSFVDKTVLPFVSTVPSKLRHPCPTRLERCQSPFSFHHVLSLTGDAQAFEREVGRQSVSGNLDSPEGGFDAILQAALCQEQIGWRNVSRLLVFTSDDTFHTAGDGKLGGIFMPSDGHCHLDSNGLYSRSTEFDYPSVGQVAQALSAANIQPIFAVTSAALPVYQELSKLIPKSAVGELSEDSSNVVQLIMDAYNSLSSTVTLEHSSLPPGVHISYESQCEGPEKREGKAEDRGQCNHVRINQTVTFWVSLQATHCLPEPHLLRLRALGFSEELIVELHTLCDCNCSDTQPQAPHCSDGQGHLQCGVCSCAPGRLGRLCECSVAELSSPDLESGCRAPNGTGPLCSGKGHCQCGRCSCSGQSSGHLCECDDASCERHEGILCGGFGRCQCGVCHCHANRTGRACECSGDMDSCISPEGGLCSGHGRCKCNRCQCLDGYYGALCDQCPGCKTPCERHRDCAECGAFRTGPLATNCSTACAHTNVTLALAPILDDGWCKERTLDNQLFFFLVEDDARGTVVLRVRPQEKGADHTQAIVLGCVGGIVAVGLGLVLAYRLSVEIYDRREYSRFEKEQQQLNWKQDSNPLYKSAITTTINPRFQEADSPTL
Briefly: Human MAdCAM-1/α4β7 integrin binding inhibitory activity evaluation test in whole human blood. It is filed as cell-based. The conditions noted are these: recombinant human MAdCAM-1/Fc, CD4 positive cells, flow cytometry. Here is the method: Human MAdCAM-1/α4β7 Integrin Binding Inhibitory Activity Evaluation Test in Whole Human Blood
Each test substance was measured in terms of the inhibitory activity of binding of T cell α4β7 integrin and MAdCAM-1 in human whole blood. Blood samples were obtained from healthy volunteers' blood donation.
A 4 mM MnCl2 solution and each of dilutions of various test substances were added to human whole blood, followed by incubation for 10 minutes. Recombinant human MAdCAM-1/Fc (R&D Systems) at 10 μg/mL was added, and each test sample taken in a total amount of 50 μL was incubated for 30 minutes. Then, 950 μL of Lyse/Fix (BD Biosciences) was added to allow hemolysis and fixation to proceed at 37° C. for 10 minutes. After centrifugation for 5 minutes, the supernatant was removed and 600 μL of a RPMI-1640 medium supplemented with 10% inactivated fetal bovine serum (hereinafter referred to as the medium) was added, followed by centrifugation for 5 minutes, removal of the supernatant, and then washing. The test sample was washed again with the medium, and then 2.5 μg/mL Mouse Anti-MAdCAM-1 antibody (Invitrogen) was added, followed by incubation for 30 minutes or more. After the test sample was washed with the medium, 3.4 μg/mL Goat Anti-Mouse IgG H&L, FITC (Abcam) was added, followed by incubation for 30 minutes or more. After the test sample was washed with the medium, 0.15 μg/mL PE Rat Anti-Mouse CD4 (BD Pharmigen) was added, followed by incubation for 30 minutes or more. After the test sample was washed with the medium, a ratio of MAdCAM-1 positive cells to CD4 positive cells was measured by using flow cytometry.
From independent test results using different blood samples of two to three persons, a MAdCAM-1 binding inhibiting rate of each test substance at each of various concentrations was obtained under the setting in which, among wells containing no test substances, a well containing no ligand was scored at 100% inhibition and a well containing ligand was scored at 0% inhibition, and then a concentration IC50 which brought about 50% binding inhibition was calculated.
Take `Cc1cn(C)c(=O)n(-c2ccc(C[C@H](NC(=O)c3cc(F)c(NS(=O)(=O)c4ccc(NC(=O)C(C)(C)C(F)(F)F)cc4)cc3F)C(=O)O)cn2)c1=O` [Compound A58]: the IC50 came out at 5.1 nM.
`Cn1cc(C(F)(F)F)c(=O)n(-c2ccc(C[C@H](NC(=O)c3cc(F)c(NS(=O)(=O)c4ccc(NC(=O)C(C)(C)C)cc4)cc3F)C(=O)O)cn2)c1=O` [Compound A67]: the half-inhibitory concentration (IC50) worked out at 5.7 nM.
`Cc1cn(C)c(=O)n(-c2ccc(C[C@H](NC(=O)c3cc(F)c(NS(=O)(=O)c4ccc(NC(=O)C(C)(C)C)cc4)cc3F)C(=O)O)cn2)c1=O` [Compound A54]: the IC50 came out at 2 nM.
On to `Cn1ccc(=O)n(-c2ccc(C[C@H](NC(=O)c3cc(F)c(NS(=O)(=O)c4ccc(NC(=O)C(C)(C)C)cc4)cc3F)C(=O)O)cn2)c1=O` [Compound A53], for which the IC50 came to 2.9 nM.
Turning to `Cc1cn(C)c(=O)n(-c2ccc(C[C@H](NC(=O)c3cc(F)c(NS(=O)(=O)c4ccc(NC(=O)C(C)(C)CO)cc4)cc3F)C(=O)O)cn2)c1=O` [Compound A63], the IC50 worked out at 4.8 nM.
Turning to `Cc1cn(C)c(=O)n(-c2ccc(C[C@H](NC(=O)c3cc(F)c(NS(=O)(=O)c4ccc(NC(=O)C5(C(F)(F)F)CC5)cc4)cc3F)C(=O)O)cn2)c1=O` [Compound A56], the IC50 worked out at 5.4 nM.
For the compound `Cc1cc(=O)n(-c2ccc(C[C@H](NC(=O)c3cc(F)c(NS(=O)(=O)c4ccc(NC(=O)C(C)(C)C)cc4)cc3F)C(=O)O)cn2)c(=O)n1C` [Compound A45], the IC50 worked out at 1.5 nM.
`CN1CCC(=O)N(c2ccc(C[C@H](NC(=O)c3cc(F)c(NS(=O)(=O)c4ccc(NC(=O)C(C)(C)C)cc4)cc3F)C(=O)O)cn2)C1=O` [Compound A75, (2S)-2-[2,5-difluoro-4-[(4-pivalamidophenyl)sulfonamide]benzamido]-3-[6-(3-methyl-2,6-dioxotetrahydropyrimidin-1(2H)-yl)pyridin-3-yl]propanoic acid]: the IC50 was determined as 5.6 nM.

(Values after patent US10562898B2, “Substituted benzenesulfonamides as inhibitors of alpha-4 beta-7 integrin activity” (EA PHARMA CO., LTD., priority 2016, dated 2020).)
